Source: US20260098053A1, “COMPOSITIONS AND METHODS FOR TREATING CNS DISORDERS” (SAGE THERAPEUTICS, INC., priority 2019, published 2026)

target: [35S]-TBPS binding, rat brain cortical membranes; assay: Steroid inhibition of [35S]-TBPS binding; settings: Table 4, 3 nM [35S]-TBPS, in the presence of 5 mM GABA, read-out: TBPS IC50
Description: [35S]-t-Butylbicyclophosphorothionate (TBPS) binding assays using rat brain cortical membranes in the presence of 5 mM GABA has been described (Gee et al, J. Pharmacol. Exp. Ther. 1987, 241, 346-353; Hawkinson et al, Mol. Pharmacol. 1994, 46, 977-985; Lewin, A. H et al., Mol. Pharmacol. 1989, 35, 189-194).
Briefly, cortices are rapidly removed following decapitation of carbon dioxide-anesthetized Sprague-Dawley rats (200-250 g). The cortices are homogenized in 10 volumes of ice-cold 0.32 M sucrose using a glass/teflon homogenizer and centrifuged at 1500×g for 10 min at 4° C. The resultant supernatants are centrifuged at 10,000×g for 20 min at 4° C. to obtain the P2 pellets. The P2 pellets are resuspended in 200 mM NaCl/50 mM Na—K phosphate pH 7.4 buffer and centrifuged at 10,000×g for 10 min at 4° C. This washing procedure is repeated twice and the pellets are resuspended in 10 volumes of buffer. Aliquots ([…]) of the membrane suspensions are incubated with 3 nM [^35S]-TBPS and […] aliquots of test drug dissolved in dimethyl sulfoxide (DMSO) (final 0.5%) in the presence of 5 mM GABA. The incubation is brought to a final volume of 1.0 mL with buffer. Nonspecific binding is determined in the presence of […] and ranged from 15 to 25%. Following a 90 min incubation at room temp, the assays are terminated by filtration through glass fiber filters (Schleicher and Schuell No. 32) using a cell harvester (Brandel) and rinsed three times with ice-cold buffer. Filter bound radioactivity is measured by liquid scintillation spectrometry. Non-linear curve fitting of the overall data for each drug averaged for each concentration is done using Prism (GraphPad). […] The concentration of test compound producing 50% inhibition (IC50) of specific binding and the maximal extent of inhibition (Imax) are determined for the individual experiments with the same model used for the overall data and then the means±SEM.s of the individual experiments are calculated.
Various compounds are or can be screened to determine their potential as modulators of [^35S]-TBPS binding in vitro. These assays are or can be performed in accordance with the above

Row | SMILES | IC50 [nM]
1 | Cc1nnn(CC(=O)[C@@H]2CCCC[C@H]3[C@@H]4CC[C@@H]5C[C@](C)(O)CCC[C@]5(C)[C@H]4CC[C@]23C)n1 [Example 64] | 100 to 1000
2 | CC[C@]12CC[C@@](C)(O)C[C@H]1CC[C@H]1[C@@H]3CCCC[C@@H](C(=O)Cn4cc(C#N)cn4)[C@@]3(C)CC[C@@H]12 [Example 21] | 100 to 1000
3 | CC[C@]12CC[C@@](C)(O)CC[C@H]1CC[C@H]1[C@@H]3CC[C@H](C(C)=O)[C@@]3(C)CC[C@@H]12 [Example 25, 1-((1S,3aS,3bS,5aR,8S,10aS,10bS,12aS)-10a-ethyl-8-hydroxy-8,12a-dimethyloctadecahydrocyclohepta[a]cyclopenta[f]naphthalen-1-yl)ethanone] | 100 to 1000
4 | CC[C@@]1(O)CCC[C@@]2(C)[C@H](CC[C@@H]3[C@@H]2CC[C@]2(C)[C@H](C(=O)Cn4cc(C#N)cn4)CCC[C@@H]32)C1 [Example 39, 1-(2-((1R,4aS,4bR,6aR,8R,11aS,11bS,13aS)-8-ethyl-8-hydroxy-11a,13a-dimethyloctadecahydro-1H-cyclohepta[a]phenanthren-1-yl)-2-oxoethyl)-1H-pyrazole-4-carbonitrile] | > 1000
5 | C[C@@]1(O)CCC[C@H]2[C@H](CC[C@@H]3[C@@H]2CC[C@]2(C)[C@@H](C(=O)Cn4cc(C#N)cn4)CCC[C@@H]32)C1 [Example 10] | < 100
6 | CC[C@@]1(O)CCC[C@H]2[C@H](CC[C@@H]3[C@@H]2CC[C@]2(C)[C@@H](C(=O)Cn4cc(C#N)cn4)CCC[C@@H]32)C1 [Example 14, 1-(2-((1S,4aS,4bR,6aR,8R,11aS,11bR,13aS)-8-ethyl-8-hydroxy-13a-methyloctadecahydro-1H-cyclohepta[a]phenanthren-1-yl)-2-oxoethyl)-1H-pyrazole-4-carbonitrile] | 100 to 1000
7 | CC[C@]12CC[C@H]3[C@@H](CC[C@@H]4C[C@](C)(O)CC[C@@H]43)[C@@H]1CCC[C@@H]2C(C)=O [Example 27, 1-((1S,4aS,4bR,6aR,8R,10aS,10bR,12aS)-12a-ethyl-8-hydroxy-8-methyloctadecahydrochrysen-1-yl)ethanone] | < 100
8 | C[C@@]1(O)CCC[C@@]2(C)[C@H](CC[C@@H]3[C@@H]2CC[C@]2(C)[C@@H](C(=O)Cn4cc(C#N)cn4)CCCC[C@@H]32)C1 [Example 60] | < 100
9 | CC(=O)[C@H]1CCC[C@H]2[C@@H]3CC[C@@H]4CC[C@](C)(O)CC[C@@H]4[C@H]3CC[C@]12C [Example 1, 1-((1S,4aS,4bR,6aR,9S,11aS,11bR,13aS)-9-hydroxy-9,13a-dimethyloctadecahydro-1H-cyclohepta[a]phenanthren-1-yl)ethan-1-one] | > 1000
10 | CC[C@]1(O)CC[C@H]2CC[C@@H]3[C@H](CC[C@]4(C)[C@@H](C(=O)Cn5cc(C#N)cn5)CCC[C@@H]34)[C@H]2CC1 [Example 50] | 100 to 1000
11 | Cc1nnnn1CC(=O)[C@@H]1CCCC[C@H]2[C@@H]3CC[C@@H]4C[C@](C)(O)CCC[C@]4(C)[C@H]3CC[C@]12C [Example 65, 1-((1R,5aS,5bR,7aR,9R,12aS,12bS,14aS)-9-hydroxy-9,12a,14a-trimethylicosahydrodicyclohepta[a,f]naphthalen-1-yl)-2-(5-methyl-1H-tetrazol-1-yl)ethanone] | > 1000
12 | CC[C@]12CC[C@H]3[C@@H](CC[C@@H]4C[C@](C)(O)CC[C@@H]43)[C@@H]1CCC[C@@H]2C(=O)Cn1cc(C#N)cn1 [Example 28, 1-(2-((1S,4aS,4bR,6aR,8R,10aS,10bR,12aS)-12a-ethyl-8-hydroxy-8-methyloctadecahydrochrysen-1-yl)-2-oxoethyl)-1H-pyrazole-4-carbonitrile] | < 100
13 | Cc1nnnn1CC(=O)[C@H]1CCC[C@H]2[C@@H]3CC[C@@H]4C[C@](C)(O)CCC[C@@H]4[C@H]3CC[C@]12C [Example 12, 1-((1S,4aS,4bR,6aR,8R,11aS,11bR,13aS)-8-hydroxy-8,13a-dimethyloctadecahydro-1H-cyclohepta[a]phenanthren-1-yl)-2-(5-methyl-1H-tetrazol-1-yl)ethan-1-one] | < 100
14 | CC[C@]12CC[C@H]3[C@@H](CC[C@@H]4C[C@](C)(O)CCC[C@@]43C)[C@@H]1CC[C@@H]2C(=O)Cn1cc(C#N)cn1 [Example 30, 1-(2-((1S,3aS,3bR,5aR,7R,10aS,10bS,12aS)-12a-ethyl-7-hydroxy-7,10a-dimethyloctadecahydrocyclohepta[a]cyclopenta[f]naphthalen-1-yl)-2-oxoethyl)-1H-pyrazole-4-carbonitrile] | < 100
15 | CC[C@]12CC[C@H]3[C@@H](CC=C4CC[C@](C)(O)CC[C@@]43C)[C@@H]1CC[C@@H]2C(C)=O [Example 34, 1-((1S,3aS,3bS,8S,10aR,10bS,12aS)-12a-ethyl-8-hydroxy-8,10a-dimethyl-1,2,3,3a,3b,4,6,7,8,9,10,10a,10b,11,12,12a-hexadecahydrocyclohepta[a]cyclopenta[f]naphthalen-1-yl)ethanone] | < 100
16 | CC(=O)[C@H]1CCC[C@H]2[C@@H]3CC[C@@H]4C[C@](C)(O)CCC[C@@H]4[C@H]3CC[C@]12C [Example 9, 1-((1S,4aS,4bR,6aR,8R,11aS,11bR,13aS)-8-hydroxy-8,13a-dimethyloctadecahydro-1H-cyclohepta[a]phenanthren-1-yl)ethan-1-one] | < 100

same assay, conditions: Table 5, 3 nM [35S]-TBPS, in the presence of 5 mM GABA, read-out: TBPS IC50

Row | SMILES | IC50 [nM]
17 | C[C@@]1(O)CC[C@H]2[C@H](CC[C@@H]3[C@@H]2CC[C@H]2[C@H]3CC[C@@H]2C(=O)Cn2cc(C#N)cn2)C1 [Example 68, 1-(2-((3R,5R,8R,9R,10S,13S,14S,17S)-3-hydroxy-3-methylhexadecahydro-1H-cyclopenta[a]phenanthren-17-yl)-2-oxoethyl)-1H-pyrazole-4-carbonitrile] | < 100
18 | Cc1nnnn1CC(=O)[C@H]1CC[C@H]2[C@@H]3CC[C@H]4C[C@](C)(O)CC[C@@H]4[C@H]3CC[C@@H]21 [Example 76, 1-((3R,5S,8R,9R,10S,13S,14S,17S)-3-hydroxy-3-methylhexadecahydro-1H-cyclopenta[a]phenanthren-17-yl)-2-(5-methyl-1H-tetrazol-1-yl)ethanone] | > 1000
19 | Cc1nnnn1CC(=O)[C@H]1CC[C@H]2[C@@H]3CC[C@@H]4C[C@](C)(O)CC[C@@H]4[C@H]3CC[C@@H]21 [Example 70, 1-((3R,5R,8R,9R,10S,13S,14S,17S)-3-hydroxy-3-methylhexadecahydro-1H-cyclopenta[a]phenanthren-17-yl)-2-(5-methyl-1H-tetrazol-1-yl)ethan-1-one] | < 100
20 | CC[C@]12CC[C@@](C)(O)C[C@H]1CC[C@H]1[C@@H]3CC[C@H](C(=O)Cn4nnc(C)n4)[C@H]3CC[C@@H]12 [Example 83, 1-((3R,5R,8S,9S,10S,13S,14S,17S)-10-ethyl-3-hydroxy-3-methylhexadecahydro-1H-cyclopenta[a]phenanthren-17-yl)-2-(5-methyl-2H-tetrazol-2-yl)ethanone] | < 100

same assay, conditions: Table 6, 3 nM [35S]-TBPS, in the presence of 5 mM GABA, read-out: IC50

Row | SMILES | IC50 [nM]
21 | CC[C@]12CC[C@H]3[C@@H](CC[C@@H]4C[C@](C)(O)CC[C@@]43C3CC3)[C@@H]1CC[C@@H]2C(C)=O [Example 88, 1-((3R,5R,8S,9S,10R,13S,14S,17S)-10-cyclopropyl-13-ethyl-3-hydroxy-3-methylhexadecahydro-1H-cyclopenta[a]phenanthren-17-yl)ethanone] | < 100
22 | CC[C@]12CC[C@H]3[C@@H](CC[C@@H]4C[C@](C)(O)CC[C@@]43C3CC3)[C@@H]1CC[C@@H]2C(=O)Cn1nnnc1C [Example 92, 1-((3R,5R,8S,9S,10R,13S,14S,17S)-10-cyclopropyl-13-ethyl-3-hydroxy-3-methylhexadecahydro-1H-cyclopenta[a]phenanthren-17-yl)-2-(5-methyl-1H-tetrazol-1-yl)ethanone] | < 100
23 | CC[C@]12CC[C@H]3[C@@H](CC[C@@H]4C[C@](C)(O)CC[C@@]43C3CC3)[C@@H]1CC[C@@H]2C(=O)Cn1ccc(C#N)n1 [Example 90, 1-(2-((3R,5R,8S,9S,10R,13S,14S,17S)-10-cyclopropyl-13-ethyl-3-hydroxy-3-methylhexadecahydro-1H-cyclopenta[a]phenanthren-17-yl)-2-oxoethyl)-1H-pyrazole-3-carbonitrile] | < 100
